In brackets after ≈: the same amount, converted by molar mass.
Columns and labels:
[1] = test system: Acinetobacter; assay: Antimicrobial activity against imipenem non-susceptible Acinetobacter assessed as susceptible isolate by broth microdilution method; format: functional
[2] = test system: Serratia marcescens; assay: Antimicrobial activity against Ceftazidime susceptible Serratia marcescens assessed as susceptible isolate by broth microdilution method; format: functional
[3] = test system: Proteus mirabilis; assay: Antimicrobial activity against ESBL producing Proteus mirabilis by broth microdilution method; format: functional
[4] = test system: Pseudomonas aeruginosa; assay: Antimicrobial activity against Ceftazidime non-susceptible Pseudomonas aeruginosa assessed as susceptible isolate by broth microdilution method; format: functional
[5] = test system: Citrobacter; assay: Antimicrobial activity against Citrobacter with derepressed AmpC beta-lactamsae assessed as intermediate isolate by broth microdilution method; format: functional
[6] = test system: Staphylococcus aureus; assay: Antimicrobial activity against methicillin-susceptible Staphylococcus aureus by broth microdilution method; format: functional; details: Staphylococcus aureus
[7] = test system: Pseudomonas aeruginosa; assay: Antimicrobial activity against imipenem non-susceptible Pseudomonas aeruginosa assessed as susceptible isolate by broth microdilution method; format: functional
[8] = test system: Serratia marcescens; assay: Antimicrobial activity against Serratia marcescens assessed as resistant isolate by broth microdilution method; format: functional
[9] = test system: Pseudomonas aeruginosa; assay: Antimicrobial activity against Pseudomonas aeruginosa assessed as resistant isolate by broth microdilution method; format: functional
[10] = test system: Citrobacter; assay: Antimicrobial activity against Citrobacter assessed as intermediate isolate by broth microdilution method; format: functional
[11] = test system: Klebsiella pneumoniae; assay: Antimicrobial activity against ESBL producing Klebsiella pneumoniae by broth microdilution method; format: functional
[12] = test system: Pseudomonas aeruginosa; assay: Antimicrobial activity against Ceftazidime non-susceptible Pseudomonas aeruginosa assessed as resistant isolate by broth microdilution method; format: functional
[13] = test system: Staphylococcus; assay: Antimicrobial activity against methicillin-susceptible coagulase-negative Staphylococcus assessed as susceptible isolate by broth microdilution method; format: functional
[14] = test system: Enterobacteriaceae; assay: Antimicrobial activity against Enterobacteriaceae assessed as susceptible isolate by broth microdilution method; format: functional
[15] = test system: Enterobacteriaceae; assay: Antimicrobial activity against Enterobacteriaceae by broth microdilution method; format: functional
[16] = test system: Citrobacter; assay: Antimicrobial activity against Citrobacter with nonderepressed AmpC beta-lactamsae assessed as resistant isolate by broth microdilution method; format: functional
[17] = test system: Pseudomonas aeruginosa; assay: Antimicrobial activity against Pseudomonas aeruginosa isolated from ICU patient assessed as susceptible isolate by broth microdilution method
[18] = test system: Acinetobacter; assay: Antimicrobial activity against imipenem susceptible Acinetobacter assessed as intermediate isolate by broth microdilution method; format: functional
[19] = test system: Escherichia coli; assay: Antimicrobial activity against ESBL producing Escherichia coli by broth microdilution method; format: functional
[20] = test system: Pseudomonas aeruginosa; assay: Antimicrobial activity against Pseudomonas aeruginosa isolated from non-ICU patient assessed as resistant isolate by broth microdilution method
[21] = test system: Enterobacter cloacae; assay: Antimicrobial activity against Enterobacter cloacae assessed as susceptible isolate by broth microdilution method; format: functional
[22] = test system: Enterobacter cloacae; assay: Antimicrobial activity against Enterobacter cloacae with nonderepressed AmpC beta-lactamsae assessed as susceptible isolate by broth microdilution method; format: functional
[23] = test system: Citrobacter; assay: Antimicrobial activity against Citrobacter with nonderepressed AmpC beta-lactamsae by broth microdilution method; format: functional
[24] = test system: Pseudomonas aeruginosa; assay: Antimicrobial activity against Pseudomonas aeruginosa assessed as susceptible isolate by broth microdilution method; format: functional
[25] = test system: Escherichia coli; assay: Antimicrobial activity against ESBL producing Escherichia coli assessed as intermediate isolate by broth microdilution method; format: functional
[26] = test system: Klebsiella pneumoniae; assay: Antimicrobial activity against Non-ESBL Klebsiella pneumoniae assessed as intermediate isolate by broth microdilution method; format: functional
[27] = test system: Serratia marcescens; assay: Antimicrobial activity against Ceftazidime susceptible Serratia marcescens assessed as resistant isolate by broth microdilution method; format: functional
[28] = test system: Enterobacteriaceae; assay: Antimicrobial activity against Ceftazidime non-susceptible Enterobacteriaceae assessed as susceptible isolate by broth microdilution method; format: functional
[29] = test system: Enterobacter cloacae; assay: Antimicrobial activity against Enterobacter cloacae with derepressed AmpC beta-lactamsae assessed as susceptible isolate by broth microdilution method; format: functional
[30] = test system: Pseudomonas aeruginosa; assay: Antimicrobial activity against Pseudomonas aeruginosa by broth microdilution method; format: functional
[31] = test system: Escherichia coli; assay: Antimicrobial activity against Escherichia coli assessed as intermediate isolate by broth microdilution method; format: functional
[32] = test system: Acinetobacter; assay: Antimicrobial activity against imipenem non-susceptible Acinetobacter assessed as intermediate isolate by broth microdilution method; format: functional
[33] = test system: Enterobacteriaceae; assay: Antimicrobial activity against ceftazidime-susceptible Enterobacteriaceae assessed as susceptible isolate by broth microdilution method; format: functional
[34] = test system: Pseudomonas aeruginosa; assay: Antimicrobial activity against Pseudomonas aeruginosa isolated from non-ICU patient by broth microdilution method
[35] = test system: Klebsiella pneumoniae; assay: Antimicrobial activity against Klebsiella pneumoniae assessed as intermediate isolate by broth microdilution method; format: functional
[36] = test system: Escherichia coli; assay: Antimicrobial activity against Escherichia coli assessed as susceptible isolate by broth microdilution method; format: functional
[37] = test system: Enterobacteriaceae; assay: Antimicrobial activity against Ceftazidime non-susceptible Enterobacteriaceae assessed as resistant isolate by broth microdilution method; format: functional
[38] = test system: Klebsiella pneumoniae; assay: Antimicrobial activity against Non-ESBL Klebsiella pneumoniae by broth microdilution method; format: functional
[39] = test system: Staphylococcus; assay: Antimicrobial activity against methicillin-resistant coagulase-negative Staphylococcus by broth microdilution method; format: functional
[40] = test system: Escherichia coli; assay: Antimicrobial activity against Non-ESBL Escherichia coli by broth microdilution method; format: functional
[41] = test system: Klebsiella pneumoniae; assay: Antimicrobial activity against Non-ESBL Klebsiella pneumoniae assessed as susceptible isolate by broth microdilution method; format: functional
[42] = test system: Streptococcus pneumoniae; assay: Antimicrobial activity against penicillin-intermediate Streptococcus pneumoniae assessed as intermediate isolate by broth microdilution method; format: functional
[43] = test system: Streptococcus pneumoniae; assay: Antimicrobial activity against penicillin-intermediate Streptococcus pneumoniae by broth microdilution method; format: functional
[44] = test system: Serratia marcescens; assay: Antimicrobial activity against Ceftazidime non-susceptible Serratia marcescens assessed as susceptible isolate by broth microdilution method; format: functional
[45] = test system: Acinetobacter; assay: Antimicrobial activity against Acinetobacter assessed as resistant isolate by broth microdilution method; format: functional
[46] = test system: Pseudomonas aeruginosa; assay: Antimicrobial activity against imipenem non-susceptible Pseudomonas aeruginosa assessed as intermediate isolate by broth microdilution method; format: functional
[47] = test system: Enterobacter cloacae; assay: Antimicrobial activity against Enterobacter cloacae assessed as intermediate isolate by broth microdilution method; format: functional
[48] = test system: Streptococcus pneumoniae; assay: Antimicrobial activity against penicillin-susceptible Streptococcus pneumoniae by broth microdilution method; format: functional; details: Streptococcus pneumoniae
[49] = test system: Proteus mirabilis; assay: Antimicrobial activity against Non-ESBL Proteus mirabilis assessed as intermediate isolate by broth microdilution method; format: functional
[50] = test system: Pseudomonas aeruginosa; assay: Antimicrobial activity against Pseudomonas aeruginosa isolated from ICU patient assessed as intermediate isolate by broth microdilution method
[51] = test system: Escherichia coli; assay: Antimicrobial activity against Escherichia coli by broth microdilution method; format: functional
[52] = test system: Escherichia coli; assay: Antimicrobial activity against Non-ESBL Escherichia coli assessed as intermediate isolate by broth microdilution method; format: functional
[53] = test system: Proteus mirabilis; assay: Antimicrobial activity against Non-ESBL Proteus mirabilis by broth microdilution method; format: functional

SMILES: C[C@@H](O)[C@H]1C(=O)N2C(C(=O)O)=C(SCCNC=N)C[C@H]12 [IMIPENEM ANHYDROUS]
- Activity [1]: 0%
- Activity [2]: 98.9%
- MIC [3]: 0.5 µg/mL (≈ 1.67 µM)
- Activity [4]: 55.5%
- Activity [5]: 0%
- MIC50 ([6]; read-out: MIC50): 0.03 µg/mL (≈ 0.1 µM)
- MIC90 ([6]; read-out: MIC90): 0.03 µg/mL (≈ 0.1 µM)
- Activity [7]: 0%
- Activity [8]: 0.8%
- Activity [9]: 16%
- Activity [10]: 0%
- MIC50 [11]: 0.5 µg/mL (≈ 1.67 µM)
- MIC90 [11]: 1 µg/mL (≈ 3.34 µM)
- Activity [12]: 36.4%
- Activity [13]: 99.4%
- Activity [14]: 99.4%
- MIC50 [15]: 0.5 µg/mL (≈ 1.67 µM)
- MIC90 [15]: 2 µg/mL (≈ 6.68 µM)
- Activity [16]: 0.2%
- Activity [17]: 67.6%
- Activity [18]: 0%
- MIC50 [19]: 0.5 µg/mL (≈ 1.67 µM)
- MIC90 [19]: 1 µg/mL (≈ 3.34 µM)
- Activity [20]: 17.2%
- Activity [21]: 99.6%
- Activity [22]: 99.5%
- MIC50 [23]: 0.5 µg/mL (≈ 1.67 µM)
- MIC90 [23]: 2 µg/mL (≈ 6.68 µM)
- Activity [24]: 76.3%
- Activity [25]: 0%
- Activity [26]: 0.1%
- Activity [27]: 0.8%
- Activity [28]: 97.3%
- Activity [29]: 100%
- MIC50 [30]: 4 µg/mL (≈ 13.4 µM)
- MIC90 [30]: 32 µg/mL (≈ 107 µM)
- Activity [31]: 0%
- Activity [32]: 3.9%
- Activity [33]: 99.6%
- Activity [34]: 74.9%
- Activity [35]: 0.2%
- Activity [36]: 100%
- Activity [37]: 1%
- MIC50 [38]: 0.5 µg/mL (≈ 1.67 µM)
- MIC90 [38]: 1 µg/mL (≈ 3.34 µM)
- MIC50 [39]: 0.25 µg/mL (≈ 0.835 µM)
- MIC90 [39]: 16 µg/mL (≈ 53.4 µM)
- MIC50 [40]: 0.25 µg/mL (≈ 0.835 µM)
- MIC90 [40]: 0.5 µg/mL (≈ 1.67 µM)
- Activity [41]: 99.8%
- Activity [42]: 84.4%
- MIC50 [43]: 0.03 µg/mL (≈ 0.1 µM)
- MIC90 [43]: 0.25 µg/mL (≈ 0.835 µM)
- Activity [44]: 100%
- Activity [45]: 17%
- Activity [46]: 32.4%
- Activity [47]: 0.4%
- MIC50 [48]: ≤ 0.015 µg/mL
- MIC90 ([48]; read-out: MIC90): ≤ 0.015 µg/mL
- Activity [49]: 2.5%
- Activity [50]: 5.8%
- MIC50 [51]: 0.25 µg/mL (≈ 0.835 µM)
- MIC90 [51]: 0.5 µg/mL (≈ 1.67 µM)
- Activity [52]: 0%
- MIC50 [53]: 2 µg/mL (≈ 6.68 µM)
- MIC90 [53]: 4 µg/mL (≈ 13.4 µM)
